{"source": "patent US20210346460A1", "about": "“TREATMENTS FOR COVID-19-RELATED SYSTEMIC SCLEROSIS, VASCULAR INSUFFICIENCY, DISTAL ISCHEMIA, AND RELATED DISEASE CONDITIONS” (priority 2020, published 2021)", "key": {"[1]": {"conditions": "cited from earlier work"}, "[2]": {"system": "intact nonpregnant systemic vessels", "test": "PGI2 release in intact nonpregnant systemic vessels (GABA dose response curves)", "parameters": "species or system sheep", "conditions": "for PGI2 levels on addition of Nanomolar Ouabain: most concentrations of GABA", "description": "In FIGS. 2A-2C, GABA dose response curves of systemic vessels in 18 day postpartum sheep are provided. These vessels are believed to be representative of non-pregnant normotensive systemic vessels. […] Accordingly, it appears that at least one of Taurine or EO (or the like) may be needed to up-regulate the GABA-a receptor to augment PGI2 levels in the presence of nanomolar ouabain, or may at least be substantially helpful to increase PGI2 levels.\nIn FIG. 2C, the systemic vessels react to variable GABA in a similar manner as pregnant uterine vessels (see, e.g., FIG. 1B), but only in the presence of Ouabain.\nAccordingly, the inventor has unexpectedly discovered that Ouabain exposure may modulate the PGI2 response through interaction with the GABA-a/AT1 construct."}, "[3]": {"system": "pregnant systemic arteries", "test": "PGI2 release in pregnant systemic arteries", "description": "During experimentation between uterine vessels and systemic vessels during pregnancy, an inverse response between uterine and systemic vessels and their levels of PGI2 release was found. […] Pregnant uterine vessels, however, required GABA and angiotensin II to increase PGI2. The inventor has surmised that this mechanism is likely feto-productive in cases of hemorrhage and low blood volume during pregnancy. During these times, AII increases, dilating the uterine circuit and constricting the systemic circuit, thereby allowing the maternal blood to pass by the baby, prolonging the baby's chances of survival.\n(§1) Accordingly, as may be observed, there is an inverse relationship depending on the vascular circuit.\n(§2) With reference to FIGS. 5A and 5B, the inventor's laboratory data indicates the presence of GABA-a receptors in both systemic vessels and uterine vessel in pregnant animals. […] It may be noted that the third and last columns of FIG. 5A and the last two columns of FIG. 5B reflect competition on the GABA-a receptor between GABA and bicuculine. GABA improves PGI2 response substantially more in the absence of GABA-a receptor competition (e.g., bicuculine); and GABA with bicuculine improves PGI2 response substantially more than bicuculine alone.\n(§3) With reference to FIG. 6, the inventor's laboratory data further illustrates that when the endothelium is removed from the pregnant uterine and systemic vessels, respectively, the PGI2 release trends that had been seen in the intact vessels is reversed. As may be observed, PGI2 release in pregnant uterine vessels is reduced in the presence of AII when the endothelium is removed; inversely, PGI2 release in pregnant systemic vessels is increased in the presence of AII when the endothelium is removed."}, "[4]": {"system": "pregnant uterine arteries", "test": "PGI2 release in pregnant uterine arteries", "description": "as §1, §2, §3\nFIG. 1A illustrates an Ouabain Dose Response Curve (“ODRC”) in pregnant uterine tissue. […] This may indicate inactivity of the GABA-a/AT1 construct without Taurine. It may have been expected that substantially less PGI2 would be released without AII than with AII. […] This may indicate an active GABA-a/AT1 construct under such conditions. […] Accordingly, the inventor has surmised that non-pregnant normotensive systemic vessel behave similarly to pregnant uterine vessels when exposed to Ouabain, releasing higher levels of PGI2 in the presence of GABA and AII.\nThis increase in PGI2 release in the presence of higher Ouabain may explain the EO resistance noted in pregnancy."}, "Cyclooxygenase (COX)": {"system": "Cyclooxygenase (COX)", "conditions": "humans or rats, pharmacological blockade of COX; cited from earlier work"}}, "note": "Entries after “also recorded” stand apart in the source; their conditions may differ. Like-named read-outs stand apart in the source and are kept apart here.", "data": [{"molecule": "CCCCOC(=O)NS(=O)(=O)c1sc(CC(C)C)cc1-c1ccc(Cn2ccnc2)cc1", "note": "[C21]", "values": [{"measurement": "Blood pressure", "setting": "[1]; eHTN humans", "value": "not shown to reduce blood pressure"}]}, {"molecule": "NCCCC(=O)O", "note": "[GABA]", "values": [{"measurement": "PGI2 response to GABA", "setting": "[2]; 18 day postpartum sheep systemic vessels, no EO or Taurine (FIG. 2A)", "value": "no PGI2 response"}, {"measurement": "PGI2 release on exposure to GABA", "setting": "[3]; pregnant systemic vessels, absence of angiotensin II", "value": "increased PGI2 release"}, {"measurement": "PGI2 release on addition of GABA", "setting": "[4]; pregnant uterine arteries, GABA alone, no AII (FIG. 5B col. 2)", "value": "insignificant effect on PGI2 release"}, {"measurement": "PGI2 release on addition of GABA and AII", "setting": "[4]; pregnant uterine arteries, GABA with AII (FIG. 5B col. 1)", "value": "increased PGI2 release"}, {"measurement": "Blood pressure", "setting": "[1]; normotensive patients", "value": "no effect"}]}, {"molecule": "Angiotensin II [AII]", "values": [{"measurement": "PGI2 formation by presence or absence of Angiotensin II", "setting": "[2]; 18 day postpartum sheep, intact systemic vessels exposed to GABA, without Taurine or EO (FIG. 2A)", "value": "no significant PGI2 formation"}, {"measurement": "PGI2 release on addition of AII", "setting": "[2]; in the presence of Ouabain, especially at higher concentrations of GABA (FIGS. 2B vs 2C)", "value": "substantially more PGI2 release"}, {"measurement": "Relationship between PGI2 release and AII presence", "setting": "[3]; pregnant systemic circuit, various GABA levels, compared with uterine circuit (FIG. 3B)", "value": "substantially inverted"}, {"measurement": "PGI2 release in the presence of AII, endothelium removed", "setting": "[3]; pregnant systemic vessels, endothelium removed (FIG. 6)", "value": "increased"}, {"measurement": "Effect of presence or absence of AII on PGI2 release", "setting": "[4]; pregnant uterine arteries, GABA provided, without taurine, various levels of Ouabain (FIG. 1A)", "value": "negligible effect on PGI2 release"}, {"measurement": "PGI2 release on further addition of AII", "setting": "[4]; pregnant uterine arteries, bicuculine and GABA present (FIG. 5B col. 4)", "value": "even further decreased PGI2"}, {"measurement": "PGI2 release with versus without AII", "setting": "[4]; pregnant uterine circuit, most levels of GABA, no Taurine, no Ouabain (FIG. 3A)", "value": "more PGI2 is released in the presence of AII"}, {"measurement": "PGI2 release in the presence of AII, endothelium removed", "setting": "[4]; pregnant uterine vessels, endothelium removed (FIG. 6)", "value": "reduced"}]}, {"molecule": "C[C@@H]1O[C@@H](O[C@H]2C[C@@H](O)[C@]3(CO)[C@H]4[C@H](O)C[C@]5(C)[C@@H](C6=CC(=O)OC6)CC[C@]5(O)[C@@H]4CC[C@]3(O)C2)[C@H](O)[C@H](O)[C@H]1O", "note": "[Ouabain]", "values": [{"measurement": "PGI2 levels on addition of Nanomolar Ouabain", "setting": "[2]; with AII, no Taurine (FIG. 2C)", "value": "significant increase in PGI2 levels"}, {"measurement": "PGI2 levels on addition of Nanomolar Ouabain", "setting": "[2]; without AII, no Taurine (FIG. 2B)", "value": "significant increase in PGI2 levels"}, {"measurement": "PGI2 release with increase in Ouabain", "setting": "[4]; pregnant uterine vessels, Ouabain from 10^−10 M to 10^−9 M, low taurine, GABA approx. −7 M (FIGS. 4A, 4B)", "value": "higher PGI2 release"}]}, {"molecule": "NCCS(=O)(=O)O", "note": "[Taurine, 2-amino-ethane sulfonic acid]", "values": [{"measurement": "Overall PGI2 release with versus without Taurine", "setting": "[4]; pregnant uterine arteries, regardless of AII presence (FIG. 1A vs 1B)", "value": "overall PGI2 release appears higher without Taurine"}]}, {"molecule": "CN1CCc2cc3c(cc2[C@H]1[C@@H]1OC(=O)c2c1ccc1c2OCO1)OCO3", "note": "[bicuculine]", "values": [{"measurement": "PGI2 release on blocking GABA-a receptors", "setting": "[3]; pregnant systemic vessels (FIG. 5A)", "value": "reduced PGI2 release in both circuits"}, {"measurement": "PGI2 release on blocking GABA-a receptors", "setting": "[4]; pregnant uterine arteries, even when additional GABA was added (FIG. 5B)", "value": "reduced PGI2 release in both circuits; also recorded: substantially reduced PGI2 release"}]}, {"molecule": "CC(=O)Oc1ccccc1C(=O)O", "note": "[aspirin]", "values": [{"measurement": "Resting blood pressure", "setting": "Cyclooxygenase (COX)", "value": "does not substantially affect resting blood pressure"}]}, {"molecule": "COc1ccc2c(c1)c(CC(=O)O)c(C)n2C(=O)c1ccc(Cl)cc1", "note": "[indomethacin]", "values": [{"measurement": "Resting blood pressure", "setting": "Cyclooxygenase (COX)", "value": "does not substantially affect resting blood pressure"}]}]}
